This note sets out measurements from ChEMBL document CHEMBL3867445, “Halogenated Sesquiterpenoids from the Red Alga Laurencia tristicha Collected in Taiwan” (J Nat Prod, 2016).

Assay [1] can be described thus: Antiinflammatory activity in human neutrophils assessed as inhibition of fMLP/CB-induced elastase release at 20 uM using MeO-Suc-Ala-Ala-Pro-Val-p-nitroanilide as elastase substrate preincubated for 5 mins followed by fMLP/CB-induction. It counts as functional. The conditions noted are these: Neutrophil.
Assay [2] is described as follows: Cytotoxicity against human LNCAP cells by Alamar Blue assay. Format: functional, cell-based. A general note: Resazurin is reduced to fluorescent resorufin, in cell work by metabolically active cells.
Assay [3] is described as follows: Cytotoxicity against human A549 cells by Alamar Blue assay.
A short description of assay [4]: Antiinflammatory activity in human neutrophils assessed as inhibition of fMLP/CB-induced superoxide anion generation by measuring superoxide dismutase-inhibitable reduction of ferricytochrome c at 20 uM preincubated for 5 mins followed by fMLP/CB-induction measured after 10 mins. Format: functional. The conditions noted are these: Neutrophil.
Assay [5] in a line: Cytotoxicity against human DLD1 cells by Alamar Blue assay. It counts as functional, cell-based. The conditions noted are these: DLD-1.
Assay [6] in a line: Antiinflammatory activity in human neutrophils assessed as inhibition of fMLP/CB-induced superoxide anion generation by measuring superoxide dismutase-inhibitable reduction of ferricytochrome c at 10 uM preincubated for 5 mins followed by fMLP/CB-induction measured after 10 mins. The conditions noted are these: Neutrophil. Format: functional.
Assay [7] in a line: Antiinflammatory activity in human neutrophils assessed as inhibition of fMLP/CB-induced elastase release at 10 uM using MeO-Suc-Ala-Ala-Pro-Val-p-nitroanilide as elastase substrate preincubated for 5 mins followed by fMLP/CB-induction. Format: functional. The conditions noted are these: Neutrophil.
A further assay has as its system Serratia marcescens. In words: Antibacterial activity against Serratia marcescens ATCC 25419 assessed as zone of inhibition at 100 ug/disk measured after 24 hrs by agar disk-diffusion method. Format: functional. The conditions noted are these: ATCC 25419, 24 h, read-out: IZ.
Another assay concerns Yersinia enterocolitica. In words: Antibacterial activity against Yersinia enterocolitica ATCC 23715 assessed as zone of inhibition at 100 ug/disk measured after 24 hrs by agar disk-diffusion method. Format: functional. The conditions noted are these: ATCC 23715, 24 h, read-out: IZ. A general note: In agar diffusion tests the substance spreads into inoculated agar from a disc or well.

In the next assay the test system is Klebsiella aerogenes. In words: Antibacterial activity against Enterobacter aerogenes ATCC 13048 assessed as zone of inhibition at 100 ug/disk measured after 24 hrs by agar disk-diffusion method. It counts as functional. The conditions noted are these: ATCC 13048, 24 h, read-out: IZ.

With `C=C1C[C@@H](O)[C@@H](Br)C(C)(C)[C@@]12C=C/C(=C/Br)CC2`, the inhibition at 20 µM in [1] amounted to 69%; in assay [4], 10%. Also, the IC50 in [2], in [3] and in assay [5] was at least 10 µM throughout. The inhibition at 10 µM in assay [6] was 18%; in assay [7] it was 34%.
Regarding `C=C1C[C@@H](O)[C@@H](Br)C(C)(C)[C@@]12C=C[C@](O)(CO)CC2`, the inhibition at 20 µM worked out at 29% in assay [1] and 14% in assay [4]. For the same compound, the IC50 in assay [2], in assay [3] and in [5] was at least 10 µM throughout. In addition, the values for the inhibition at 10 µM in assay [6] and in assay [7] were 7% and 9%, respectively.
For `C=C1C[C@@H](O)[C@@H](Br)C(C)(C)[C@]12CCC(=O)[C@H]1O[C@H]12`, the figures for the inhibition at 20 µM in assay [1] and in [4] were 14% and 6%, respectively. Besides, the IC50 in [2], in assay [3] and in [5] was at least 10 µM each time. Further, the inhibition at 10 µM in assay [6] was 6%; in [7] it was 3%.
As for `CC1=CC(=O)CC(C)(C)[C@@]12C=C/C(=C\Br)CC2`, the inhibition at 20 µM was 14% in assay [1] and 12% in assay [4]. In addition, the IC50 in [2], in [3] and in [5] was at least 10 µM each time. Moreover, the zone of inhibition at 100 µg/disc in the assay with Serratia marcescens stood at 8 mm. For the same compound, the inhibition at 10 µM in assay [6] is 6%; in assay [7], 3%.
Consider `C=C1C[C@@H](O)[C@@H](Br)C(C)(C)[C@@]12C=C[C@](O)(C(Br)Br)CC2`, for which the results for the zone of inhibition at 100 µg/disc in the assay with Yersinia enterocolitica and in the assay with Serratia marcescens were 4 mm and 2 mm, respectively. The inhibition at 20 µM in assay [1] was determined as 33%; in [4] it was 32%. The IC50 in assay [2], in assay [3] and in assay [5] was at least 10 µM in each case. Moreover, the inhibition at 10 µM in assay [6] turned out to be 19%; in assay [7] it was 9%.
On to `C=C1CC[C@]2(C[C@@H]1O)C(=C)C[C@H](O)[C@@H](Br)C2(C)C`, for which the inhibition at 20 µM was found to be 24% in [1] and 14% in assay [4]. In addition, the IC50 in assay [2], in assay [3] and in assay [5] was at least 10 µM in each case. The inhibition at 10 µM is 10% in assay [6] and 5% in [7].
`Cc1ccc([C@]2(C)C[C@H](O)[C@@H](Br)C2(C)C)cc1`: the inhibition at 20 µM in assay [1] came out at 28%; in assay [4], 26%. Moreover, the IC50 in assay [2], in [3] and in assay [5] was at least 10 µM throughout. Moreover, the figures for the inhibition at 10 µM in assay [6] and in [7] were 17% and 7%, respectively.
On to `CC1=CC(=O)CC(C)(C)[C@@]12C=C/C(=C/Br)CC2`, for which the results for the inhibition at 20 µM in assay [1] and in assay [4] were 30% and 10%, respectively. For the same compound, the IC50 in assay [2], in assay [3] and in assay [5] was at least 10 µM in each case. Further, the inhibition at 10 µM in assay [6] stood at 7%; in assay [7], 5%.
Consider `CC1=C[C@H](O)[C@@H](Br)C(C)(C)[C@@]12C=C[C@](C)(O)CC2`, for which the inhibition at 20 µM in [1] and in assay [4] was 12% each time. Moreover, the IC50 in assay [2], in assay [3] and in assay [5] was at least 10 µM in each case. For the same compound, the inhibition at 10 µM in [6] worked out at 13%; in assay [7] it was 1%.
`C=C1C[C@@H](O)[C@@H](Br)C(C)(C)[C@]12CC[C@](C)(Br)[C@@H](Cl)C2`: the zone of inhibition at 100 µg/disc in the assay with Yersinia enterocolitica, in the assay with Klebsiella aerogenes and with Serratia marcescens was 2 mm each time. For the same compound, the inhibition at 20 µM in [1] was 60%; in assay [4] it was 48%. The IC50 in assay [2], in assay [3] and in assay [5] was at least 10 µM throughout. Further, the inhibition at 10 µM came out at 25% in assay [6] and 44% in [7].
For `CO[C@@]1(C)CC[C@]2(C[C@H]1Br)C(C)=C[C@H](O)CC2(C)C`, the inhibition at 20 µM in [1] was 24%; in assay [4], 10%. In addition, the half-maximal inhibitory concentration (IC50) in assay [2], in [3] and in assay [5] was at least 10 µM each time. For the same compound, the figures for the inhibition at 10 µM in assay [6] and in assay [7] were 12% and 5%, respectively.
Take `CC1=C[C@H](O)CC(C)(C)[C@]12CC[C@](C)(Br)[C@H](Cl)C2`: the values for the inhibition at 20 µM in [1] and in assay [4] were 19% and 14%, respectively. In addition, the half-maximal inhibitory concentration (IC50) in assay [2], in assay [3] and in assay [5] was at least 10 µM each time. The inhibition at 10 µM in assay [6] and in assay [7] was 12% each time.
As for `CC1(C)[C@H](Br)[C@H](O)C[C@@]2(CO2)[C@@]12CCC(=O)[C@@H]1O[C@@H]12`, the figures for the inhibition at 20 µM in assay [1] and in assay [4] were 18% and 8%, respectively. The half-inhibitory concentration (IC50) in assay [2], in assay [3] and in [5] was at least 10 µM throughout. The inhibition at 10 µM in assay [6] is 9%; in [7], 2%.
Regarding `C=C1C[C@@H](O)[C@@H](Br)C(C)(C)[C@@]12C=CC(=O)CC2`, the inhibition at 20 µM in assay [1] turned out to be 14%; in assay [4], 13%. For the same compound, the IC50 in assay [2], in assay [3] and in assay [5] was at least 10 µM in each case. The zone of inhibition at 100 µg/disc with Klebsiella aerogenes is 3 mm. The inhibition at 10 µM was found to be 7% in [6] and 9% in [7].
With `C=C1C[C@@H](O)[C@@H](Br)C(C)(C)[C@@]12C=C/C(=C\Br)CC2`, the zone of inhibition at 100 µg/disc turned out to be 3 mm in the assay with Yersinia enterocolitica and 4 mm in the assay on Serratia marcescens. Besides, the inhibition at 20 µM is 12% in assay [1] and 10% in assay [4]. In addition, the IC50 in assay [2], in assay [3] and in [5] was at least 10 µM in each case. For the same compound, the results for the inhibition at 10 µM in assay [6] and in [7] were 24% and 8%, respectively.
Consider `CC1=CC(=O)CC(C)(C)[C@@]12C=CC(=O)CC2`, for which the inhibition at 20 µM in [1] is 32%; in assay [4], 16%. The IC50 in [2], in assay [3] and in assay [5] was at least 10 µM throughout. Moreover, the results for the inhibition at 10 µM in [6] and in assay [7] were 4% and 18%, respectively.
For the compound `CC1(C)S[C@@H]2[C@H](NC(=O)[C@H](N)c3ccccc3)C(=O)N2[C@H]1C(=O)O` [AMPICILLIN], the zone of inhibition at 100 µg/disc with Yersinia enterocolitica amounted to 8 mm; with Klebsiella aerogenes, 11 mm; in the assay with Serratia marcescens, 5 mm.
Take `COc1cccc2c1C(=O)c1c(O)c3c(c(O)c1C2=O)C[C@@](O)(C(=O)CO)C[C@@H]3O[C@H]1C[C@H](N)[C@H](O)[C@H](C)O1` [DOXORUBICIN]: the half-inhibitory concentration (IC50) in [2] is 1.4 µM; in [5], 2.6 µM.
Consider `CC[C@H](Nc1ncnc2[nH]cnc12)c1nc2cccc(F)c2c(=O)n1-c1ccccc1` [IDELALISIB], for which the inhibition at 10 µM amounted to 103% in assay [6] and 100% in [7].
On to `C=C1C[C@H](O)[C@@H](Br)C(C)(C)[C@@]12C=C[C@](C)(O)CC2` [ISORIGIDOL], for which the inhibition at 20 µM in [1] was found to be 12%; in assay [4] it was 23%. Besides, the IC50 in assay [2], in [3] and in assay [5] was at least 10 µM throughout. Further, the inhibition at 10 µM in assay [6] was 11%; in assay [7] it was 9%.
Consider `C=C1C[C@@H](O)[C@@H](Br)C(C)(C)[C@@]12C=C[C@@](O)(C(Br)Br)CC2` [MAILIOHYDRIN], for which the zone of inhibition at 100 µg/disc is 2 mm in the assay with Yersinia enterocolitica, 1 mm in the assay on Klebsiella aerogenes and 2 mm in the assay with Serratia marcescens. The inhibition at 20 µM was found to be 22% in assay [1] and 16% in [4]. Besides, the IC50 in assay [2], in [3] and in assay [5] was at least 10 µM in each case. The inhibition at 10 µM came to 13% in assay [6] and 16% in assay [7].

The term inhibition denotes the change of the read-out against control, counted positive when it falls. By IC50 is commonly meant the concentration that inhibits the measured activity by half. Read a low IC50 as greater potency in that assay.
